Experimental data: the NIST ThermoML archive (doi:10.1021/je0502142)

Columns and labels:
[1] = Liquid; for mass density / speed of sound: 298.15 K; for mass density: 101.33 kPa, Vibrating tube method; for speed of sound: Sing-around technique in a fixed-path interferometer
[2] = refractive index (Na D-line) (dimensionless); conditions: 298.15 K; 101.33 kPa; Liquid; Standard Abbe refractometry
[3] = xn = mol fraction of the nth substance listed; conditions: 298.15 K, 101.3 kPa, Liquid; for speed of sound: Sing-around technique in a fixed-path interferometer
[4] = refractive index (Na D-line) (dimensionless); xn = mol fraction of the nth substance listed; conditions: 298.15 K, 101.3 kPa, Liquid, Standard Abbe refractometry

CCC(C)CO (stereo unspecified) [2-methyl-1-butanol]
Conditions | mass density [kg/m3] | refractive index | speed of sound [m/s]
[1] | 814.87 | – | 1253.3
[2] | – | 1.40872 | –

Conditions | vapor or sublimation pressure [kPa]
[1], 401.93 K | 101.3

CCC(C)CO (stereo unspecified) [2-methyl-1-butanol] + CCCO
Conditions | mass density, [3] [kg/m3] | refractive index, [4] | speed of sound, [3] [m/s]
x2 = 0.051 | 814.37 | 1.40768 | 1252.4
x2 = 0.1 | 813.84 | 1.40677 | 1250.6
x2 = 0.151 | 813.28 | 1.40573 | 1248.7
x2 = 0.2 | 812.71 | 1.40478 | 1246.8
x2 = 0.251 | 812.09 | 1.4038 | 1244.7
x2 = 0.3 | 811.46 | 1.40272 | 1242.8
x2 = 0.351 | 810.8 | 1.40164 | 1240.5
x2 = 0.408 | 810.04 | 1.40039 | 1238
x2 = 0.45 | 809.44 | 1.39934 | 1236.1
x2 = 0.501 | 808.69 | 1.39815 | 1233.7
x2 = 0.55 | 807.94 | 1.39697 | 1231.3
x2 = 0.6 | 807.14 | 1.39556 | 1228.8
x2 = 0.65 | 806.3 | 1.39422 | 1226.2
x2 = 0.7 | 805.38 | 1.39279 | 1223.2
x2 = 0.75 | 804.5 | 1.39133 | 1220.7
x2 = 0.801 | 803.53 | 1.38982 | 1217.6
x2 = 0.85 | 802.6 | 1.38815 | 1214.8
x2 = 0.899 | 801.61 | 1.38658 | 1211.8
x2 = 0.949 | 800.64 | 1.38483 | 1208.7

CC(C)CCO [3-methylbutan-1-ol]
Conditions | mass density [kg/m3] | refractive index | speed of sound [m/s]
[1] | 806.78 | – | 1238.8
[2] | – | 1.40515 | –

Conditions | vapor or sublimation pressure [kPa]
[1], 404.27 K | 101.3

CC(C)CCO [3-methylbutan-1-ol] + CCCO
Conditions | mass density, [3] [kg/m3] | refractive index, [4] | speed of sound, [3] [m/s]
x2 = 0.05 | 806.4 | 1.40447 | 1234.4
x2 = 0.1 | 806.12 | 1.40366 | 1233.5
x2 = 0.15 | 805.83 | 1.40281 | 1232.3
x2 = 0.201 | 805.54 | 1.402 | 1231.1
x2 = 0.251 | 805.25 | 1.40115 | 1230
x2 = 0.3 | 804.97 | 1.4002 | 1228.8
x2 = 0.351 | 804.66 | 1.39919 | 1227.5
x2 = 0.4 | 804.37 | 1.3983 | 1226.2
x2 = 0.45 | 804.07 | 1.39734 | 1224.9
x2 = 0.5 | 803.75 | 1.39621 | 1223.4
x2 = 0.551 | 803.41 | 1.39507 | 1222
x2 = 0.6 | 803.08 | 1.39396 | 1220
x2 = 0.65 | 802.72 | 1.39278 | 1218.5
x2 = 0.7 | 802.34 | 1.39148 | 1217
x2 = 0.749 | 801.96 | 1.39035 | 1215.3
x2 = 0.799 | 801.55 | 1.38898 | 1213.6
x2 = 0.85 | 801.13 | 1.38757 | 1211.8
x2 = 0.9 | 800.69 | 1.3861 | 1210
x2 = 0.95 | 800.22 | 1.38458 | 1208.2

CCCO [propan-1-ol]
Conditions | mass density [kg/m3] | refractive index | speed of sound [m/s]
[1] | 799.75 | – | 1205.7
[2] | – | 1.38304 | –

Conditions | vapor or sublimation pressure [kPa]
[1], 370.29 K | 101.3
